Molecular target: T1, PTK2B (FAK2) (Homo sapiens, UniProt Q14289)
T1 construct: purchased Thermo Fisher Scientific (Life Technologies) SelectScreen
Assay: SelectScreen Z'LYTE
Assay type: biochemical
In short: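 NU5455 was profiled across the SelectScreen Broad panel of kinase activity and binding assays. Z'LYTE reactions such as CSF1R ran at apparent Km ATP, while the Adapta CAMK1 assay used ATP listed as 10. Values are given as percent.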

T1 sequence (Q14289 whole entry): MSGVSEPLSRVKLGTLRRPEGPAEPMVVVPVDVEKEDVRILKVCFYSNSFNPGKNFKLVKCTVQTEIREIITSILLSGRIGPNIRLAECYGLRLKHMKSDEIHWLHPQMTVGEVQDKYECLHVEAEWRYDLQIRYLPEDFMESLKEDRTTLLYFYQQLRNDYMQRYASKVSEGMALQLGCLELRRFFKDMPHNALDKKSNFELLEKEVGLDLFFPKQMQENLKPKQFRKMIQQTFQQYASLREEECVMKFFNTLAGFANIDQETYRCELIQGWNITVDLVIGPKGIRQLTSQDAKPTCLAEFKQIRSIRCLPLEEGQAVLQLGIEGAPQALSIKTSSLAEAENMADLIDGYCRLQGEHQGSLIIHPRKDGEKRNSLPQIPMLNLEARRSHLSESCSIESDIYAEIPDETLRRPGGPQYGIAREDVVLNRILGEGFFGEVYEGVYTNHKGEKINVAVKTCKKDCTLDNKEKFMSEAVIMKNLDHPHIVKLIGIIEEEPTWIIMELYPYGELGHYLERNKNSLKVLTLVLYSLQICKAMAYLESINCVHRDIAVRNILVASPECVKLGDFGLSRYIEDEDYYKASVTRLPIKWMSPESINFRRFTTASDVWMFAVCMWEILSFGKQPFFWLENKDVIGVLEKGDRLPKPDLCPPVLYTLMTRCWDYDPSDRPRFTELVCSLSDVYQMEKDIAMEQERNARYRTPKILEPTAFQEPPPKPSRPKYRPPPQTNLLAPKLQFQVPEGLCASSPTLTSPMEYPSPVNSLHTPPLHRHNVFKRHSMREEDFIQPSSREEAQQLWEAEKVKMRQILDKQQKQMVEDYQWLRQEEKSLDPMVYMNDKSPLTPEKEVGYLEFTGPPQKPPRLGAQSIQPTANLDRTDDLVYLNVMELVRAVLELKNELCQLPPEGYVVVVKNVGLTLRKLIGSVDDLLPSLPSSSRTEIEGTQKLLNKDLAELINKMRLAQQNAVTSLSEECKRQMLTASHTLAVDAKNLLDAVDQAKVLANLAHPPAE

CN(C(=O)CN1CCOCC1)c1ccc2sc3c(-c4cccc5c(=O)cc(N6CC7CCC(C6)O7)oc45)cccc3c2c1 [NU5455]
inhibition at 1 µM: 4.2%

Source: paper PMC6934184, “Selective DNA-PKcs inhibition extends the therapeutic index of localized radiotherapy and chemotherapy” (The Journal of Clinical Investigation, 2019)
